# According to patent publication US20160375006A1, “USES OF PARALOG-SELECTIVE INHIBITORS OF GSK3 KINASES” (priority 2012, published 2016):
# Read-outs that look alike come from different tables or passages of the source.
# Columns and labels:
# [1] = molecular target: T1, GSK3β (Homo sapiens, UniProt P49841); experiment: biochemical
# Method: (§1) Reactions were terminated by the addition of 10 mM EDTA. Substrate and product were separated electrophoretically and fluorescence intensity of the substrate and product was determined by Labchip EZ Reader II (Caliper Life Sciences, MA). The kinase activity was measured as percent conversion. The reactions were performed in duplicate for each sample. […] The results were analyzed by Genedata Assay Analyzer. The percent inhibition was plotted against the compound concentration and the IC50 value was determined from the logistic dose-response curve fitting.
# [2] = molecular target: GSK3α (Homo sapiens, UniProt P49840); experiment: biochemical
# Method: as §1
# [3] = molecular target: T1, GSK3β
# Method: as §1
# [4] = Caliper assay, GSK3β over GSK3α
# T1 sequence (P49841 whole entry): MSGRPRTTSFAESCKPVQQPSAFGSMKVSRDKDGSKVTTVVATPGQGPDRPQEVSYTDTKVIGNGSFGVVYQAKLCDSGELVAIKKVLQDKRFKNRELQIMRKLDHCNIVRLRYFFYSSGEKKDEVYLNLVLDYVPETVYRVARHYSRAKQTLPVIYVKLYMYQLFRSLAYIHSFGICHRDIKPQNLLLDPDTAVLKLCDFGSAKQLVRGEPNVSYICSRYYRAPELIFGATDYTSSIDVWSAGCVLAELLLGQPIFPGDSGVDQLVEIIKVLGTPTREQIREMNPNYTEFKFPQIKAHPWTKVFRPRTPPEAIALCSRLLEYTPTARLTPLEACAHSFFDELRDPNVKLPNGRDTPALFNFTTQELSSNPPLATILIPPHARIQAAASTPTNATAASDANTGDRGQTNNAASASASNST
# Sequence of GSK3α (P49840 whole entry): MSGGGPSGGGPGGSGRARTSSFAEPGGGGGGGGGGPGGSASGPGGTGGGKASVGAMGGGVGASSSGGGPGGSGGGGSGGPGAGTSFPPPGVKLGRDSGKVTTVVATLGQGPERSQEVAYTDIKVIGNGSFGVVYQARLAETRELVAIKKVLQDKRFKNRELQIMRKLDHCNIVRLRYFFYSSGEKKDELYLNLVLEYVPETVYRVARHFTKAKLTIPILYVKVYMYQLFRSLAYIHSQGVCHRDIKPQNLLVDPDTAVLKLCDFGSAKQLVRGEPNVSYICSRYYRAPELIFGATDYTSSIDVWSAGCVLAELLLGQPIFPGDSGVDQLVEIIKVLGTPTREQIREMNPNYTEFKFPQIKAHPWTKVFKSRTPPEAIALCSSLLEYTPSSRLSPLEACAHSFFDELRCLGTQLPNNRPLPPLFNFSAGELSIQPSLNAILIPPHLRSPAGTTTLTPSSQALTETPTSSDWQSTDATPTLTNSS
Compound,IC50 [1],IC50 [2],GSK3β fold selectivity [3],"GSK3β fold selectivity [3, 4]"
CC1(C)CC(=O)C2=C(C1)Nc1n[nH]c(C3CC(F)(F)C3)c1[C@]21CCOc2ccccc21 [Compound 270],210 nM,1630 nM,7.8 fold,–
CC(C)(C)Cc1[nH]nc2c1[C@@](C)(c1ccccc1)C1=C(CC(C)(C)CC1=O)N2 (stereo in doubt) [Compound 273],1050 nM,6700 nM,–,6.4 fold
CCC(C)(C)Cc1[nH]nc2c1[C@](C)(c1ccccc1)C1=C(CC(C)(C)CC1=O)N2 (stereo in doubt) [Compound 291],52 nM,332 nM,–,6.4 fold
CCc1ccccc1[C@@H]1C2=C(CC(C)(C)CC2=O)Nc2n[nH]c(C(C)C)c21 [Compound 322],42 nM,462 nM,–,11.0 fold
CC(C)(C)Cc1[nH]nc2c1[C@@](C)(c1ccc(F)cc1)C1=C(CC(C)(C)CC1=O)N2 (stereo in doubt) [Compound 277],949 nM,2800 nM,–,3.0 fold
COc1ccccc1[C@@H]1C2=C(CC(C)(C)CC2=O)Nc2n[nH]c(C3CC(F)(F)C3)c21 (stereo in doubt) [Compound 252],23 nM,191 nM,–,8.3 fold
CC1(C)CC(=O)C2=C(C1)Nc1n[nH]c(C3CC(F)(F)C3)c1C2(C)c1cccc(C(F)(F)F)c1 (racemic) [Compound 247],328 nM,523 nM,–,1.6 fold
CC(C)(C)Cc1[nH]nc2c1[C@@]1(CCc3ccccc31)C1=C(CC(C)(C)CC1=O)N2 (stereo in doubt) [Compound 282],1.7 nM,28 nM,–,16.5 fold
COc1ccccc1C1C2=C(CC(C)(C)CC2=O)Nc2n[nH]c(CC(C)(C)C)c21 (racemic) [Compound 278],19 nM,253 nM,–,13.3 fold
CC1(C)CC(=O)C2=C(C1)Nc1n[nH]c(C3CC(F)(F)C3)c1[C@@]21COc2ccccc21 [Compound 256],2 nM,13 nM,6.5 fold,–
CC1(C)CC(=O)C2=C(C1)Nc1n[nH]c(C3CC(F)(F)C3)c1[C@@]21CCc2c(F)cccc21 [Compound 262],124 nM,542 nM,4.4 fold,–
CC[C@@]1(c2cccc(C(C)(C)C)c2)C2=C(CC(C)(C)CC2=O)Nc2n[nH]cc21 (stereo in doubt) [Compound 226],12 nM,51 nM,–,4.3 fold
CC(C)(C)Cc1[nH]nc2c1[C@]1(CCc3cc(F)ccc31)C1=C(CC(C)(C)CC1=O)N2 (stereo in doubt) [Compound 286],790 nM,4760 nM,–,6.0 fold
CCC1(c2ccccc2)C2=C(CC(C)(C)CC2=O)Nc2n[nH]c(CC(C)(C)C)c21 (stereo not drawn) [Compound 274],100 nM,340 nM,–,3.4 fold
CC(C)c1[nH]nc2c1[C@](C)(c1ccccc1Cl)C1=C(CC(C)(C)CC1=O)N2 (stereo in doubt) [Compound 316],703 nM,6280 nM,–,8.9 fold
CC1(C)CC(=O)C2=C(C1)Nc1n[nH]c(C3CCCC3)c1[C@]2(C)c1ccccc1 (stereo in doubt) [Compound 301],372 nM,1060 nM,–,2.9 fold
CC(C)c1[nH]nc2c1[C@@](C)(c1ccccc1Cl)C1=C(CC(C)(C)CC1=O)N2 (stereo in doubt) [Compound 317],3430 nM,12900 nM,–,3.8 fold
CC(C)(C)Cc1[nH]nc2c1[C@@]1(CCc3cc(F)ccc31)C1=C(CC(C)(C)CC1=O)N2 (stereo in doubt) [Compound 285],11 nM,249 nM,–,22.6 fold
COc1ccccc1[C@@H]1C2=C(CC(C)(C)CC2=O)Nc2n[nH]c(CC(C)(C)C)c21 (stereo in doubt) [Compound 280],1910 nM,10600 nM,–,5.6 fold
CC(C)(C)Cc1[nH]nc2c1C1(CCc3cc(F)ccc31)C1=C(CC(C)(C)CC1=O)N2 (racemic) [Compound 284],63 nM,485 nM,–,7.7 fold
CC(C)c1[nH]nc2c1[C@@]1(CCc3ccccc31)C1=C(CC(C)(C)CC1=O)N2 (stereo in doubt) [Compound 242],16 nM,81 nM,–,5.1 fold
CC(C)(C)Cc1[nH]nc2c1[C@]1(CCOc3ccccc31)C1=C(CC(C)(C)CC1=O)N2 (stereo in doubt) [Compound 289],530 nM,2980 nM,–,5.6 fold
